# Legend:
# human mGlu5 (hmGlu5) [1] = biological target: T1, human mGlu5 (hmGlu5) (Homo sapiens, UniProt P41594); assay: whole-cell [3H]methoxy-PEPy inhibition binding; format: cell-based
# human mGlu5 (hmGlu5) [2] = biological target: T1, human mGlu5 (hmGlu5); assay: iCa2+ mobilisation; format: cell-based
# human mGlu5 (hmGlu5) [3] = biological target: T1, human mGlu5 (hmGlu5); assay: cell-based; design: species or system HEK293A; details: HEK293-A, read-out: iCa2+ human mGlu5 Emax
# human mGlu5 (hmGlu5) [4] = biological target: T1, human mGlu5 (hmGlu5); assay: whole-cell [3H]methoxy-PEPy inhibition binding; format: cell-based; remark: listed apart in the source
# human mGlu5 (hmGlu5) [5] = biological target: T1, human mGlu5 (hmGlu5); assay: IP1 accumulation; format: cell-based
# human mGlu5 (hmGlu5) [6] = biological target: T1, human mGlu5 (hmGlu5); assay: whole-cell saturation radioligand binding; format: cell-based
# human mGlu5 (hmGlu5) [7] = biological target: T1, human mGlu5 (hmGlu5); assay: IP1 accumulation; format: cell-based; remark: listed apart in the source
# T1 sequence (P41594 21-1180 isoform P41594-2): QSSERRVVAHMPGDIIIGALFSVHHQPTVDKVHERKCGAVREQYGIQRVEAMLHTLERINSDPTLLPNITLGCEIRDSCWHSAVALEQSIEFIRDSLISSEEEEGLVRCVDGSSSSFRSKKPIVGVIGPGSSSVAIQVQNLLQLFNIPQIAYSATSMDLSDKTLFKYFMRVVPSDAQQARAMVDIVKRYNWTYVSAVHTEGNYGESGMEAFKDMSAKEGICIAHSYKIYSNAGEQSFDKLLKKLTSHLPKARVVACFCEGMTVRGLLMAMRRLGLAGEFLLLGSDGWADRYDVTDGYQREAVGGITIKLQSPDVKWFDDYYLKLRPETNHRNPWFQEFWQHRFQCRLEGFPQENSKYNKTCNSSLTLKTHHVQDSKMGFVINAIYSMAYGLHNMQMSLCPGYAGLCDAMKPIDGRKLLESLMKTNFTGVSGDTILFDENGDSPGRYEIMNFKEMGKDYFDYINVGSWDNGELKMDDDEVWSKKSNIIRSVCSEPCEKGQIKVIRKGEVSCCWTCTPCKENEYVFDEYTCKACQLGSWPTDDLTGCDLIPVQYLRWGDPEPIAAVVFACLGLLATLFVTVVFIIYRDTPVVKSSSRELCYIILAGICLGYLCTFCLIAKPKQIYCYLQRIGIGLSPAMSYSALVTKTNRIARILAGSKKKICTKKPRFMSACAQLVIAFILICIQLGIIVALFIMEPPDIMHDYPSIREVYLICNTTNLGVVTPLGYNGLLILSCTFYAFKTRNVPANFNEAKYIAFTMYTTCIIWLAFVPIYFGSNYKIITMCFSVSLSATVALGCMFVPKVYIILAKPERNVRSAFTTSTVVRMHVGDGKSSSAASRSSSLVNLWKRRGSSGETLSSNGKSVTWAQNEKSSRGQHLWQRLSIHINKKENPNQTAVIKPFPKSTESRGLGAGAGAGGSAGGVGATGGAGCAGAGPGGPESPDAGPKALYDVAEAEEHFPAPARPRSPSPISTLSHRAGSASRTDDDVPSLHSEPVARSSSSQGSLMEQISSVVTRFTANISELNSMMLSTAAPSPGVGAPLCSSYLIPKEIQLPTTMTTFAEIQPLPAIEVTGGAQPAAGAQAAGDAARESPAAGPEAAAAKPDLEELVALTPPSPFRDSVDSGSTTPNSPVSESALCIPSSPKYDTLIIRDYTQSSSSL
smiles,measurement,setting,value
"CCCCOc1ccc(C(=O)Nc2ccc(F)cc2F)cc1 [VU0357121, 4-butoxy-N-(2,4-difluorophenyl)benzamide]",Kd,human mGlu5 (hmGlu5) [1],537 nM
"C[C@@H](NC(=O)c1ccc(C#Cc2cccc(F)c2)cn1)C(C)(C)O [VU0424465, (R)-5-((3-fluorophenyl)ethynyl)-N-(3-hydroxy-3-methylbutan-2-yl)picolinamide]",EC50,human mGlu5 (hmGlu5) [2],275 nM
same,Kd,human mGlu5 (hmGlu5) [1],35.5 nM
same,Emax,human mGlu5 (hmGlu5) [3],69.5 ± 4.5%
"O=C(COCc1ccc(F)cc1)N1CCN(c2ccc(F)cc2F)CC1 [DPFE, 1-(4-(2,4-difluorophenyl)piperazin-1-yl)-2-((4-fluorobenzyl)oxy)ethanone]",Ki,human mGlu5 (hmGlu5) [4],7410 nM
"N#Cc1cc(F)cc(C(=O)Nc2cccc(Cl)c2F)c1 [VU0366248, N-(3-chloro-2-fluorophenyl)-3-cyano-5-fluorobenzamide]",IC50,human mGlu5 (hmGlu5) [5],115 nM
same,Kd,human mGlu5 (hmGlu5) [1],224 nM
COc1cncc(C#Cc2ccccn2)c1 [[3H]methoxy-PEPy],Kd,human mGlu5 (hmGlu5) [6],4.57 nM
"N[C@H](C(=O)O)c1cc(O)cc(O)c1 [DHPG, (S)-3,5-dihydroxyphenylglycine]",EC50,human mGlu5 (hmGlu5) [2],1100 nM
same,Emax,human mGlu5 (hmGlu5) [3],80.3 ± 2.5%
"CN1CC(=O)N=C1NC(=O)Nc1cccc(Cl)c1 [fenobam, N-(3-chlorophenyl)-3-[(2e)-1-methyl-4-oxoimidazo-lidin-2-ylidene]urea]",IC50,human mGlu5 (hmGlu5) [5],55 nM
same,Kd,human mGlu5 (hmGlu5) [1],81.3 nM
"O=C(c1ccc(F)cc1)N1CCc2nc(COc3ccccc3)oc2C1 [VU0409551, (4-fluorophenyl)(2-(phenoxymethyl)-6,7-dihydrooxazolo[5,4-c]pyridin-5(4H)-yl)methanone]",Ki,human mGlu5 (hmGlu5) [4],1410 nM
same,EC50,human mGlu5 (hmGlu5) [7],661 nM
N[C@@H](CCC(=O)O)C(=O)O [glutamate],Emax,human mGlu5 (hmGlu5) [3],103 ± 3.9%

# From article doi:10.1101/2024.12.05.627101v1 (biorxiv, 2024)
